Results as given in PubChem BioAssay AID2060491 (Molecular Pharmacology Branch, DTP, NCI, 2025).
Where “and” joins values, the source holds several entries; their conditions need not be identical. Equal entries are not always repeated.

System: 857933-349-R-J2-PDC complex spheroids, viability
Experiment: Anticancer human tumor 857933-349-R-J2-PDC patient-derived colon adenocarcinoma cell line growth inhibition [GQUAD]
Conditions: for viability, T/C: stronger effect = lower value
Excerpt: DNA G-quadruplex Stabilizer Agents in Combinations in Complex Spheroids
A high-throughput screen of multi-cell type tumor spheroids was designed to identify active combinations of DNA G-quadruplex stabilizer agents and targeted small molecules. Complex spheroids include a stromal component modeled by human endothelial cells (HUVEC) and fibroblasts modeled by human mesenchymal stem cells (MSCs). The concentration ranges selected for each drug and investigational agent were based upon clinically achievable concentrations if the clinical Cmax of the agent was known.
Compounds. The drugs and investigational agents: pidnarulex (CX-5461; NSC782164), APTO-253 (NSC789042), BRACO-19 (NSC847499), peposertib (NSC802822), ceralasertib (NSC780249), elimusertib (NSC800525), camonsertib (NSC841442), AZD-1390 (NSC803789), olaparib (NSC753686), talazoparib (NSC767125), ART-558 (NSC835418), sotorasib (NSC818433), MRTX-1133 (NSC836407), SN-38 (NSC673596), topotecan (NSC609699), etoposide (NSC141540), doxorubicin (NSC123127), gemcitabine (NSC613327), 5-fluorouracil (NSC19893), paclitaxel (NSC125973), vemurafenib (NSC761431), panobinostat (NSC761190), R-306465 (JNJ-16241199; NSC773264), adavosertib (NSC754352), TP-3654 (NSC805149), carboplatin (NSC241240), KSQ-4279 (NSC840948), and staurosporine (NSC755774) were obtained from the National Cancer Institute (NCI) Developmental Therapeutics Program Chemical Repository (34). The FDA-approved anticancer drug set is available from the NCI Developmental Therapeutics Program. […] The stock solutions were prepared in dimethyl sulfoxide (DMSO, Sigma-Aldrich, St. Louis, MO, cat. D2650) at 800-fold the tested concentration and stored at -70 degrees C prior to their use. All drugs and investigational agents were tested over a range starting from a high concentration at or near the clinical Cmax and decreasing in half-log increments. If the clinical Cmax for an agent had not been determined, the highest concentration tested was 10 microM.
2.3 Cell Culture. All cells were maintained in an incubator at 37 degrees C and 5% CO2 with 95% humidity. The PDC lines were cultured according to standard operating procedures established by the NCI PDMR. All PDCs were thawed and cultured in Matrigel-coated flasks prepared with a working solution of 1X Ham's F-12 nutrient mix, without supplementation (Invitrogen, cat. 11765054), 100 U/mL penicillin-streptomycin (Invitrogen, cat. 15140122), and 2.5% Matrigel (Corning Inc., cat. 354248) for the first three passages. The 857933-349-R-J2-PDC line was cultured in 6C/Colon 1B media, which includes advanced DMEM/F-12 (Thermo Fisher Scientific, cat. 12634028), 10 mM HEPES (Thermo Fisher Scientific, cat. 15630080), 1X GlutaMAX supplement (Thermo Fisher Scientific, cat. 35050061), 0.1 mg/mL primocin (InvivoGen, cat. ant-pm-2), 10% defined fetal bovine serum, heat inactivated (HyClone Laboratories Inc., cat. SH30070.03HI), 50% L-WRN conditioned media (ATCC, cat. CRL-3276), 1.25 mM N-Acetyl-L-cysteine (Sigma-Aldrich, cat. A9165), 10 mM nicotinamide (Sigma-Aldrich, cat. N0636), 1X B-27 supplement (Thermo Fisher Scientific, cat. 17504044), 1X N-2 supplement (Thermo Fisher Scientific, cat. 17502048), 10 microM Y-27632 dihydrochloride (Tocris Bioscience, cat. 1254), and 50 ng/mL human EGF recombinant protein (Thermo Fisher Scientific, cat. PHG0311). The 485176-168-R4-J1-PDC line was cultured in Panc media, which includes all 6C/Colon 1B media components plus 100 ng/mL human FGF-10 (Thermo Fisher Scientific, cat. 100-26), 500 nM SB-431542 (Selleckchem, cat. S1067), and gastrin (Tocris, cat. 3006).
[…]
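Also: spheroids exposed to compounds for one week before readout.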
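For viability, T/C in this document: percent viability relative to vehicle DMSO wells taken as 100%.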

For `CC1COCCN1c1cc(-c2ccnn2C)c2ccnc(-c3ccn[nH]3)c2n1` (stereo not drawn) + Cc1[nH]c2ccc(F)cc2c1-c1nc2c3cccnc3c3ncccc3c2[nH]1, the IC50 (curve of first compound, second compound 0.0316 µM) was 250 nM, the IC50 (curve of first compound, second compound 0.1 µM) was 491 nM and the IC50 (curve of first compound, second compound 0.316 µM) was 327 nM. It also gave an IC50 (curve of first compound, second compound 1 µM) of 280 nM, an IC50 (curve of first compound, second compound 3.16 µM) of 197 nM and an IC50 (curve of first compound, second compound 10 µM) of 277 nM. For the same compound, the viability, T/C (second compound 0.0316 µM, first compound 0.0316 µM) was 73.7%, the viability, T/C (second compound 0.0316 µM, first compound 0.1 µM) was 53.2% and the viability, T/C (second compound 0.0316 µM, first compound 0.316 µM) was 50.3%. It also gave a viability, T/C (second compound 0.0316 µM, first compound 1 µM) of 43.8%, a viability, T/C (second compound 0.0316 µM, first compound 3.16 µM) of 55.3% and a viability, T/C (second compound 0.0316 µM, first compound 10 µM) of 44.8%. It also gave a viability, T/C (second compound 0.1 µM, first compound 0.0316 µM) of 69.6%, a viability, T/C (second compound 0.1 µM, first compound 0.1 µM) of 70.9% and a viability, T/C (second compound 0.1 µM, first compound 0.316 µM) of 53.2%. It also gave a viability, T/C (second compound 0.1 µM, first compound 1 µM) of 43.5%, a viability, T/C (second compound 0.1 µM, first compound 3.16 µM) of 46.9% and a viability, T/C (second compound 0.1 µM, first compound 10 µM) of 44.2%. It also gave a viability, T/C (second compound 0.316 µM, first compound 0.0316 µM) of 71.7%, a viability, T/C (second compound 0.316 µM, first compound 0.1 µM) of 56.6% and a viability, T/C (second compound 0.316 µM, first compound 0.316 µM) of 49.2%. The viability, T/C (second compound 0.316 µM, first compound 1 µM) was 48.8%, the viability, T/C (second compound 0.316 µM, first compound 3.16 µM) was 47.4% and the viability, T/C (second compound 0.316 µM, first compound 10 µM) was 46.6%. For the same compound, the viability, T/C (second compound 1 µM, first compound 0.0316 µM) was 61%, the viability, T/C (second compound 1 µM, first compound 0.1 µM) was 61.5% and the viability, T/C (second compound 1 µM, first compound 0.316 µM) was 48.6%. It also gave a viability, T/C (second compound 1 µM, first compound 1 µM) of 43.1%, a viability, T/C (second compound 1 µM, first compound 3.16 µM) of 52.8% and a viability, T/C (second compound 1 µM, first compound 10 µM) of 50.1%. The viability, T/C (second compound 3.16 µM, first compound 0.0316 µM) was 75.2%, the viability, T/C (second compound 3.16 µM, first compound 0.1 µM) was 56% and the viability, T/C (second compound 3.16 µM, first compound 0.316 µM) was 45%. For the same compound, the viability, T/C (second compound 3.16 µM, first compound 1 µM) was 43.8%, the viability, T/C (second compound 3.16 µM, first compound 3.16 µM) was 44.6% and the viability, T/C (second compound 3.16 µM, first compound 10 µM) was 44.7%. For the same compound, the viability, T/C (second compound 10 µM, first compound 0.0316 µM) was 74.4%, the viability, T/C (second compound 10 µM, first compound 0.1 µM) was 57% and the viability, T/C (second compound 10 µM, first compound 0.316 µM) was 50.4%. For the same compound, the viability, T/C (second compound 10 µM, first compound 1 µM) was 43.1%, the viability, T/C (second compound 10 µM, first compound 3.16 µM) was 46.1% and the viability, T/C (second compound 10 µM, first compound 10 µM) was 42.6%.
`COc1cccc2c1C(=O)c1c(O)c3c(c(O)c1C2=O)CC(O)(C(=O)CO)CC3OC1CC(N)C(O)C(C)O1` (stereo not drawn) was tested, and the viability, T/C (compound 0.0316 µM) was 84.6% and 101% and 86.6%, the viability, T/C (compound 0.1 µM) was 60% and 94.5% and 51.8% and the viability, T/C (compound 0.316 µM) was 57.6% and 71.5% and 49.7%. The viability, T/C (compound 1 µM) was 43.2% and 45.9% and 44.8%, the viability, T/C (compound 3.16 µM) was 7.65% and 8.98% and 6.13% and the viability, T/C (compound 10 µM) was 0.27% and 0.59% and 0.13%. The IC50 (curve of compound) was 415 nM and 751 nM and 277 nM.
`CC(C)n1c(=O)n(C)c2cnc3cc(F)c(-c4ccc(OCCCN5CCCCC5)nc4)cc3c21` was tested, and the viability, T/C (compound 0.0316 µM) was 105% and 109% (2×), the viability, T/C (compound 0.1 µM) was 101% and 106% and 90.6% and the viability, T/C (compound 0.316 µM) was 104% and 109% and 108%. For the same compound, the viability, T/C (compound 1 µM) was 98.6% and 103% and 99.5%, the viability, T/C (compound 3.16 µM) was 104% and 110% and 107% and the viability, T/C (compound 10 µM) was 78.2% and 107% and 72.4%. It also gave an IC50 (curve of compound) greater than 10000 nM.
For `CC(=O)O[C@H]1C(=O)[C@@]2(C)[C@H]([C@H](OC(=O)c3ccccc3)[C@]3(O)C[C@H](OC(=O)[C@H](O)[C@@H](NC(=O)c4ccccc4)c4ccccc4)C(C)=C1C3(C)C)[C@]1(OC(C)=O)CO[C@@H]1C[C@@H]2O`, the viability, T/C (compound 0.0316 µM) was 52.5% and 76.2% and 43.1%, the viability, T/C (compound 0.1 µM) was 16.1% (2×) and 36.9% and the viability, T/C (compound 0.316 µM) was 11.9% and 21.4% and 7.97%. The viability, T/C (compound 1 µM) was 13.3% and 23.7% and 9.54%, the viability, T/C (compound 3.16 µM) was 12% and 23.8% and 9% and the viability, T/C (compound 10 µM) was 13.6% and 25.8% and 10.8%. For the same compound, the IC50 (curve of compound) was 34.2 nM and 68.2 nM and < 31.6 nM.
With `O=c1[nH]cc(F)c(=O)[nH]1` the viability, T/C (compound 0.0316 µM) was 105% and 101% and 108%, the viability, T/C (compound 0.1 µM) was 88% and 103% and 95.2% and the viability, T/C (compound 0.316 µM) was 99.2% and 102% and 99.4%. The viability, T/C (compound 1 µM) was 69.5% and 66.1% and 91.1%, the viability, T/C (compound 3.16 µM) was 35.9% and 40.5% and 63.2% and the viability, T/C (compound 10 µM) was 22.8% and 19.8% and 47.5%. The IC50 (curve of compound) was 1950 nM and 2010 nM and 8270 nM.
In the case of `CC1COCCN1c1cc(C2(O)CC3CCC(C2)O3)c2cnn(-c3ccn[nH]3)c2n1` (stereo not drawn), the viability, T/C (compound 0.0316 µM) is reported as 68.6% and 76.9% and 98%, the viability, T/C (compound 0.1 µM) is reported as 52% and 53% and 88.7% and the viability, T/C (compound 0.316 µM) is reported as 43.7% and 48.3% and 77.2%. The viability, T/C (compound 1 µM) was 38.1% and 42% and 63.5%, the viability, T/C (compound 3.16 µM) was 46.3% and 45.1% and 55.5% and the viability, T/C (compound 10 µM) was 37.5% and 47.3% and 50.1%.
For `C=CCn1c(=O)c2cnc(Nc3ccc(N4CCN(C)CC4)cc3)nc2n1-c1cccc(C(C)(C)O)n1`, the viability, T/C (compound 0.0316 µM) was 102% and 105% and 106%, the viability, T/C (compound 0.1 µM) was 99.4% and 100% and 96.3% and the viability, T/C (compound 0.316 µM) was 95.1% and 97.1% and 97.4%. The viability, T/C (compound 1 µM) was 66.4% and 72.8% and 47.7%, the viability, T/C (compound 3.16 µM) was 26.8% and 27.4% and 8.15% and the viability, T/C (compound 10 µM) was 28.5% and 27% and 10.6%. The IC50 (curve of compound) was 1640 nM and 1800 nM and 945 nM.
